According to article PMC3335822 (PLoS ONE, 2012):

Key:
[1] = cited from earlier work
[2] = tested on: mouse aortic rings; assay: Mouse aortic ring assay (ex vivo sprouting angiogenesis, VEGF-stimulated); conditions: 5 μM, 10 days
Method: The preparation of rat collagen and the aortic ring assay were carried out as previously described, [50]. Mice were 4 to 6 week old female C57BL/6, and aortic ring explants were cultured at 37°C in a humidified incubator under a 5% CO2 atmosphere.
Each inhibitor was serially diluted (between 0.25 mM and 7.5 mM) to stocks of 1000× the working concentrations in sterile 100% DMSO in order to achieve an equal final concentration of DMSO (0.1% v/v) in all culture conditions. For the experiments, the compounds were diluted in EBM containing 2.5% FBS, penicillin/streptomycin and 20 ng/ml VEGF165 (R&D Systems, Minneapolis, MN). Each compound was applied from the first day of culture over a 10-day period with medium change every two days. In all experiments, the vehicle (DMSO, 0.1%) was used as control. The sprouting density was derived from counting the number of branches per ring, and the extent of angiogenic sprouting was estimated by measuring the total surface area covered by the vessels.

[3] = tested on: zebrafish embryos; assay: Analysis of zebrafish vasculature, Tg(kdrl:EGFP) embryos; format: in vivo; conditions: exposure from about 5 hpf, analysis at 28–30 hpf
Method: Tg(kdrl:EGFP)^s843 zebrafish line was used for vascular analysis. Embryos were maintained in fish water until the 50% epiboly stage (5.25 hpf) and were transferred into wells of 24-well plate containing the inhibitors in fish water. All incubation was performed at 28.5°C. The analysis for vascular defects was performed at the 28–30 hpf stages, and embryos were imaged using a fluorescence microscope.

[4] = tested on: HUVECs; assay: HUVEC tubulogenesis assay on Matrigel; format: cell-based, human; conditions: up to 7.5 μM
Method: Tubulogenesis assays were performed in 15-well micro-slide (ibidi LLC, Verona WI), using growth factor-reduced matrigel (BD Bioscience, Billerica, MA). The matrix was prepared by loading 10 μl of matrigel in each micro-slide well and allowing it to solidify for 30 minutes at 37°C. HUVECs were trypsinized and resuspended at 100,000 cell/ml in EBM +2.5% FBS. 50 μl (5,000 cell) were loaded on top of the solidified matrigel and the preparation was incubated for 20 hours at 37°C in a humidified incubator in a 5% CO2 atmosphere. Bright field images were taken using an inverted microscope at 2.5× magnification, which allowed imaging of the whole well in two pictures that were later merged in Photoshop. Tubular structures were traced and counted using NeuroJ (NIH, USA). In experiments with inhibitor, the inhibitor was added to the cell suspension before loading. Each sample was loaded in triplicate, and each treatment was repeated for reproducibility.

[5] = target: T1, PTP1B (Homo sapiens, UniProt P18031); assay: pNPP hydrolysis by PTP1B; format: biochemical; conditions: for IC50: substrate pNPP
T1 construct: made in house
T1 sequence (P18031 1-435): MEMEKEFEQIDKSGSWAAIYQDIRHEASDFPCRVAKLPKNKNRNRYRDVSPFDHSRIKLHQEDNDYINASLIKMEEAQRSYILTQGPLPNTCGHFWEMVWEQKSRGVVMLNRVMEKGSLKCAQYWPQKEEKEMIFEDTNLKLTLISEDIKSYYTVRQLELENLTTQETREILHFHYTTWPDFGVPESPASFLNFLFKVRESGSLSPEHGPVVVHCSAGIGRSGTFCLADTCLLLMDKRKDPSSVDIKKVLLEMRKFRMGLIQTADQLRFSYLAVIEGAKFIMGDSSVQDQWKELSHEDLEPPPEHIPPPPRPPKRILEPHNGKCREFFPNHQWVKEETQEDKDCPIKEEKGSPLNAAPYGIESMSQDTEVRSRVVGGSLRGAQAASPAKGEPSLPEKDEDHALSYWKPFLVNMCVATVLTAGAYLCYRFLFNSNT
Method: The catalytic domain of human Eyes Absent 2 was similarly sub-cloned as a poly-histidine fusion construct in the vector pDEST-527. Fusion protein was purified by Ni-NTA chromatography and followed by size-exclusion chromatography over a Superdex-75 column. The relative purity of protein samples was determined using SDS-PAGE. PTP1B was purified as described previously.
(§1) Compounds were dissolved in DMSO and diluted as needed. […] Reactions were incubated at 30°C for 30 minutes and quenched with 100 mM EDTA pH 10. IC50 values were then calculated directly from regression curves using PRISM. All reported values are the mean of two independent experiments.

[6] = tested on: HUVECs; assay: HUVEC transwell migration; format: cell-based, human; conditions: 5 μM
Method: (§2) Human umbilical vein endothelial cells (HUVECs) were purchased from Lonza (Walkersville, MD) and maintained in the endothelial cell growth medium (PromoCell, Heidelberg, Germany), under a 5% CO2 atmosphere. MCF10A cells from ATCC were stably transfected with either pcDNA 3.2/V5-DEST (vector control), V5-EYA2 or V5-EYA2(mut). Transwell migration experiments were performed as previously described.

[7] = tested on: MCF10A-EYA2 cells; assay: Transwell migration of MCF10A cells over-expressing EYA2; format: cell-based; conditions: 7.5 μM
Method: as §2

[8] = target: T2, Eya3(ED) (Mus musculus, UniProt P97480); assay: pNPP hydrolysis by the catalytic domain of Eya3; format: biochemical; conditions: substrate pNPP 3.4 mM, pH 6, 30°C, 30 minutes
T2 construct: The catalytic domain (ED) of mouse Eyes Absent 3 (Eya3(223–510)) was purified; made in house
T2 sequence (P97480 223-510): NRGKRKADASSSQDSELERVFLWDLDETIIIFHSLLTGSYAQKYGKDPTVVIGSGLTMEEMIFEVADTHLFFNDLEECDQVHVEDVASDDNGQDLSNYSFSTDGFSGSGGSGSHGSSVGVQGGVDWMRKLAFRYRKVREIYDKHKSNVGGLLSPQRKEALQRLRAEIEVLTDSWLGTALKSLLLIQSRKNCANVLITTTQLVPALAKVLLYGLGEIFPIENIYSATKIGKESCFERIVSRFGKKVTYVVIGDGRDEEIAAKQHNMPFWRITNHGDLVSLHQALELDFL
Excerpt: (§3) The catalytic domain (ED) of mouse Eyes Absent 3 (Eya3(223–510)) was purified as described before. Human Eyes Absent 3 isoform 2 (representing the major species identified in human cell lines by mass spectrometry and residues 127–573 of NM_001990, isoform 1) was sub-cloned into pDEST565 to express a poly-histidine- Glutathione-S-transferase (His-GST) tagged fusion protein with a TVMV protease site. The protein was purified by glutathione-S-transferase affinity chromatography followed by TVMV cleavage, Ni-NTA chromatography, and finally size exclusion chromatography.
The NCI Diversity Set II was obtained from the NCI in 96-well trays from the NIH Molecular Libraries Program and stored as 10 mM stocks in DMSO. An initial manual screen was conducted using the previously described p-nitrophenylphosphate assay and mouse Eya3(223–510) in a reaction mixture containing 20 mM MES pH 6, 2 mM MgCl2, 125 μM inhibitor, 3.4 mM para-nitrophenol phosphate (pNPP) and 0.01 μg/µL enzyme.
as §1

[9] = target: T3, human EYA3 (Homo sapiens, UniProt Q99504); assay: pNPP hydrolysis by full-length EYA3; format: biochemical; conditions: full-length human EYA3, substrate pNPP
T3 construct: residues 127–573 of NM_001990, isoform 1; His-GST (poly-histidine, glutathione-S-transferase) with TVMV protease site (cleaved yes); made in house
T3 sequence (Q99504 127-573): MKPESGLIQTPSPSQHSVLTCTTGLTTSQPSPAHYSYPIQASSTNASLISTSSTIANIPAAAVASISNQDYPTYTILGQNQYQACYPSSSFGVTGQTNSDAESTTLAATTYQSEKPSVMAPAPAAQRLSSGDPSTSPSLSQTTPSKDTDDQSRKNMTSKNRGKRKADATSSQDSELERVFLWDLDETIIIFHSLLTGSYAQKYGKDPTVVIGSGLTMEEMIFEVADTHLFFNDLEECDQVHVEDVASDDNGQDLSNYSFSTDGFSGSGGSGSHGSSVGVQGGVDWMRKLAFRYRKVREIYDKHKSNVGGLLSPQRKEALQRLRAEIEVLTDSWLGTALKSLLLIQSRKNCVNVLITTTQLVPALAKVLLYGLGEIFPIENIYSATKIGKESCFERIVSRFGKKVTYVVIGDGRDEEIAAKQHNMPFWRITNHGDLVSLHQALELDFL
Excerpt: as §3, with “chromatography. […]” for “chromatography.”
as §1

| SMILES | half-life [1] [h] | effect on sprouting of aortic rings [2] | effect on the developing vasculature [3] | effect on tubulogenesis, in words [4] | IC50 [5] [µM] | effect on HUVEC cell motility [6] | effect on migration of MCF10A(EYA2) cells [7] | IC50 [8] [µM] | IC50 [9] [µM] | selectivity EYA3 versus PTP1B, in words ([5]; pNPP hydrolysis) |
| --- | --- | --- | --- | --- | --- | --- | --- | --- | --- | --- |
| CCc1oc2cc(O)ccc2c1C(=O)c1cc(Br)c(O)c(Br)c1 [6-hydroxybenzbromarone] | 30 |  |  |  |  |  |  |  |  |  |
| CCCCc1oc2ccccc2c1C(=O)c1ccc(O)cc1 [Compound 1b] |  | shorter sprouts and significantly lower microvascular density | reduced the number of intersegmental vessels, but were less potent | effective only at the highest concentrations tested (7.5 μM) | 71.4 | attenuated HUVEC cell motility | significantly inhibited cell migration |  |  |  |
| O=C(c1cc2ccccc2o1)c1coc2ccc(O)cc12 [Compound 1c] |  | negligible effect | no effect on the vasculature |  | 11.8 |  | had no effect on cell motility | > 150 | > 150 | preferentially inhibited PTP1B |
| O=C(c1ccc(F)cc1)c1coc2ccc(O)cc12 [Compound 1d] |  |  |  |  | > 150 |  |  | > 150 | > 150 |  |
| COc1ccc(C(=O)c2coc3ccc(O)cc23)cc1 [Compound 1e] |  |  |  |  | > 150 |  |  | > 150 | > 150 |  |
| COc1ccc(OC)c(C(=O)c2coc3ccc(O)cc23)c1 [Compound 1f] |  |  |  |  | 102 |  |  | > 150 | > 150 |  |
| CC(=O)c1c(C)oc2ccc(O)cc12 [Compound 1g] |  |  |  |  | > 150 |  |  | > 150 | > 150 |  |
| COc1ccc(CC(=O)c2ccc(O)cc2O)cc1 [Compound 1h] |  |  |  |  | > 150 |  |  | > 150 | > 150 |  |
| CC(=O)c1cc(Br)c(O)c(Br)c1O [Compound 1i] |  |  |  |  | > 150 |  |  | > 150 | > 150 |  |
| CCCCC(=O)c1ccc(O)cc1 [Compound 1j] |  |  |  |  | > 150 |  |  | > 150 | > 150 |  |
